ChEMBL document CHEMBL1137354, “Potent, selective, and orally efficacious antagonists of melanin-concentrating hormone receptor 1” (J Med Chem, 2006)
pIC50: −log10 of the molar value.

Experiments:
[1] = target: Melanin-concentrating hormone receptor 1 (Homo sapiens, UniProt Q99705); assay: Antagonist activity against human MCHR1 expressed in CHO cells by Gal4/Elk1-Luc reporter assay; type: functional, cell-based
Mus musculus [2] = assay: Concentration in DIO AKR/J mouse brain at 10 mg/kg, po; type: ADME, organism-based; design: dose 10 mg/kg, route oral; details: in vivo
Mus musculus [3] = assay: Reduction in body weight of DIO AKR/J mouse relative to control at 3 mg/kg/day, po after 26 days; type: functional; design: scale not given: the % may be the effect or the level left
[4] = Oral bioavailability in rat at 3 mg/kg, iv and 10 mg/kg, po; type: ADME, organism-based; details: in vivo
[5] = Ratio of drug concentration in brain to serum in DIO AKR/J mouse at 1 mg/kg, po
Mus musculus [6] = assay: Concentration in DIO AKR/J mouse brain at 3 mg/kg, po; type: ADME, organism-based; design: dose 3 mg/kg, route oral; details: in vivo
Mus musculus [7] = assay: Concentration in DIO AKR/J mouse brain at 1 mg/kg, po; type: ADME, organism-based; design: dose 1 mg/kg, route oral; details: in vivo
Mus musculus [8] = assay: Concentration in DIO AKR/J mouse serum at 10 mg/kg, po; type: ADME, organism-based; design: dose 10 mg/kg, route oral; details: in vivo
Mus musculus [9] = assay: Concentration in DIO AKR/J mouse serum at 1 mg/kg, po; type: ADME, organism-based; design: dose 1 mg/kg, route oral; details: in vivo
Mus musculus [10] = assay: Reduction in body weight of DIO AKR/J mouse relative to control at 10 mg/kg/day, po after 26 days; type: functional; design: scale not given: the % may be the effect or the level left
[11] = Half life in rat at 3 mg/kg, iv; type: ADME, organism-based; design: dose 3 mg/kg, route intravenous; details: in vivo
[12] = Total clearance in rat at 3 mg/kg, iv and 10 mg/kg, po; type: ADME, organism-based; details: in vivo
[13] = Ratio of drug concentration in brain to serum in DIO AKR/J mouse at 3 mg/kg, po
[14] = Volume of distribution in rat at 3 mg/kg, iv and 10 mg/kg, po; type: ADME, organism-based; details: in vivo, read-out: Vss
[15] = Ratio of drug concentration in brain to serum in DIO AKR/J mouse at 10 mg/kg, po
Mus musculus [16] = assay: Concentration in DIO AKR/J mouse serum at 3 mg/kg, po; type: ADME, organism-based; design: dose 3 mg/kg, route oral; details: in vivo
Mus musculus [17] = assay: Reduction in body weight of DIO AKR/J mouse relative to control at 1 mg/kg/day, po after 26 days; type: functional; design: scale not given: the % may be the effect or the level left

Chain of Melanin-concentrating hormone receptor 1 (Q99705 whole entry, the tested form may be a part): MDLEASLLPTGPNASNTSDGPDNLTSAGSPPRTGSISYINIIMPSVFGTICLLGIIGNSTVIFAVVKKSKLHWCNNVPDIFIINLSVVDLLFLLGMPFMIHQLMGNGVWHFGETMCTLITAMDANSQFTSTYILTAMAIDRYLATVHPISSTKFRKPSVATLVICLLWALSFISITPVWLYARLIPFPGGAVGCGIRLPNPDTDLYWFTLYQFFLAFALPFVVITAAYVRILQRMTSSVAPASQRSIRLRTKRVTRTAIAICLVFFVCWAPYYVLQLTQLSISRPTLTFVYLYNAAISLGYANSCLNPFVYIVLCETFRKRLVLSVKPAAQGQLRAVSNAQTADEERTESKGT

SMILES	pIC50 [1]	also measured
O=c1c2sc(-c3ccc(Cl)cc3)cc2ncn1-c1ccc2ncccc2c1	7.20	–
CN1CCN(Cc2ccc3cc(-n4cnc5cc(-c6ccc(Cl)cc6)sc5c4=O)ccc3n2)CC1	8.51	Drug uptake (Mus musculus [2]): 13093 ng/g; Activity (Mus musculus [3]): 9.4%; bioavailability [4]: 98%; Kp [5]: 31; Drug uptake (Mus musculus [6]): 5508 ng/g; Drug uptake (Mus musculus [7]): 1421 ng/g; Drug uptake (Mus musculus [8]): 414 ng/mL; Drug uptake (Mus musculus [9]): 44 ng/mL; Activity (Mus musculus [10]): 16.9%; half-life [11]: 7.7 h; clearance [12]: 39 mL/min/kg; Kp [13]: 31; Vd [14]: 19 L/kg; Kp [15]: 31; Drug uptake (Mus musculus [16]): 178 ng/mL; Activity (Mus musculus [17]): 4.8%
CCC(C)c1ccc(-c2cc3ncn(-c4ccc5nc(CN6CCOCC6)ccc5c4)c(=O)c3s2)cc1 (configuration not stated)	6.70	–
CN(Cc1ccc2cc(-n3cnc4cc(-c5ccc(Cl)cc5)sc4c3=O)ccc2n1)c1ccccc1	7.06	–
O=c1c2sc(-c3ccc(Cl)cc3)cc2ncn1-c1ccc2nc(CN3CCN(CCCN4CCOCC4)CC3)ccc2c1	7.43	–
O=c1c2sc(-c3ccc(C(F)(F)F)cc3)cc2ncn1-c1ccc2nc(CN3CCOCC3)ccc2c1	7.44	–
O=c1c2sc(-c3ccc(Br)cc3)cc2ncn1-c1ccc2nc(CN3CCOCC3)ccc2c1	7.40	–
COc1ccc(-c2cc3ncn(-c4ccc5nc(CN6CCOCC6)ccc5c4)c(=O)c3s2)cc1	7.51	–
CN(C)C[C@H]1COc2cc(-n3cnc4cc(-c5ccc(Cl)cc5)sc4c3=O)ccc2O1	7.60	–
CN(C)CC1CN(S(C)(=O)=O)c2cc(-n3cnc4cc(-c5ccc(Cl)cc5)sc4c3=O)ccc2O1 (configuration not stated)	5.38	–
O=c1c2sc(-c3ccccc3Cl)cc2ncn1-c1ccc2nc(CN3CCOCC3)ccc2c1	5.90	–
N#Cc1ccc(-c2cc3ncn(-c4ccc5nc(CN6CCOCC6)ccc5c4)c(=O)c3s2)cc1	6.32	–
O=c1c2sc(-c3ccc(F)cc3)cc2ncn1-c1ccc2nc(CN3CCOCC3)ccc2c1	6.30	–
CN(C)CC1CN(S(=O)(=O)c2ccccc2)c2cc(-n3cnc4cc(-c5ccc(Cl)cc5)sc4c3=O)ccc2O1 (configuration not stated)	5.16	–
O=c1c2sc(-c3ccccc3)cc2ncn1-c1ccc2nc(CN3CCOCC3)ccc2c1	6.10	–
O=c1c2sc(-c3ccc(Cl)cc3)cc2ncn1-c1ccc2nc(CN3CCN(CCN4CCOCC4)CC3)ccc2c1	7.72	–
O=c1c2sc(-c3ccc(Cl)cc3)cc2ncn1-c1ccc2c(c1)OC[C@H](CN1CCCC1)O2	7.62	bioavailability [4]: 65%; half-life [11]: 6.1 h; clearance [12]: 66 mL/min/kg; Vd [14]: 22 L/kg
CC(C)(C)c1ccc(-c2cc3ncn(-c4ccc5nc(CN6CCOCC6)ccc5c4)c(=O)c3s2)cc1	6.30	–
O=c1c2sc(-c3cccc(Cl)c3)cc2ncn1-c1ccc2nc(CN3CCOCC3)ccc2c1	5.40	–

Continued, in another order:

pIC50 [1]	SMILES	also measured
8.15	O=c1c2sc(-c3ccc(Cl)cc3)cc2ncn1-c1ccc2c(c1)OC[C@@H](CN1CCCC1)O2	–
8.51	O=c1c2sc(-c3ccc(Cl)cc3)cc2ncn1-c1ccc2nc(CN3CCC(c4ccc(F)cc4)CC3)ccc2c1	bioavailability [4]: 30%; half-life [11]: 16 h; clearance [12]: 2.9 mL/min/kg; Vd [14]: 2.3 L/kg
8.11	CN(C)CC1COc2cc(-n3cnc4cc(-c5ccc(Cl)cc5)sc4c3=O)ccc2O1 (configuration not stated)	–
9.05	O=c1c2sc(-c3ccc(Cl)cc3)cc2ncn1-c1ccc2nc(CN3CCCCC3)ccc2c1	–
8.21	CCN1CCN(Cc2ccc3cc(-n4cnc5cc(-c6ccc(Cl)cc6)sc5c4=O)ccc3n2)CC1	–
8.46	CN1CCN(CC2CNc3cc(-n4cnc5cc(-c6ccc(Cl)cc6)sc5c4=O)ccc3O2)CC1 (configuration not stated)	–
8.42	O=c1c2sc(-c3ccc(Cl)cc3)cc2ncn1-c1ccc2nc(CN3CCN(c4ccccc4)CC3)ccc2c1	–
8.46	O=c1c2sc(-c3ccc(Cl)cc3)cc2ncn1-c1ccc2nc(CO)ccc2c1	–
8.49	CN(C)CC1CNc2cc(-n3cnc4cc(-c5ccc(Cl)cc5)sc4c3=O)ccc2O1 (configuration not stated)	bioavailability [4]: 75%; half-life [11]: 8 h; clearance [12]: 88 mL/min/kg; Vd [14]: 27 L/kg
9.00	O=c1c2sc(-c3ccc(Cl)cc3)cc2ncn1-c1ccc2nc(CN3CCCC3)ccc2c1	–
8.49	CN(C)C[C@@H]1COc2cc(-n3cnc4cc(-c5ccc(Cl)cc5)sc4c3=O)ccc2O1	–
8.21	O=c1c2sc(-c3ccc(Cl)cc3)cc2ncn1-c1ccc2nc(CN3CCC(c4ccc(C(F)(F)F)cc4)CC3)ccc2c1	bioavailability [4]: 18%; half-life [11]: 8.5 h; clearance [12]: 3.7 mL/min/kg; Vd [14]: 1.1 L/kg
8.07	O=c1c2sc(-c3ccc(Cl)cc3)cc2ncn1-c1ccc2c(c1)NCC(CN1CCOCC1)O2 (configuration not stated)	–
8.25	O=c1c2sc(-c3ccc(Cl)cc3)cc2ncn1-c1ccc2nc(CN3CCC(N4CCCC4)CC3)ccc2c1	–
8.47	O=c1c2sc(-c3ccc(Cl)cc3)cc2ncn1-c1ccc2c(c1)NCC(CN1CC[C@@H](O)C1)O2 (some centres not stated)	–
9.13	CN(C)Cc1ccc2cc(-n3cnc4cc(-c5ccc(Cl)cc5)sc4c3=O)ccc2n1	–
8.28	O=c1c2sc(-c3ccc(Cl)cc3)cc2ncn1-c1ccc2c(c1)NCC(CN1CC[C@H](O)C1)O2 (some centres not stated)	–
8.31	O=c1c2sc(-c3ccc(Cl)cc3)cc2ncn1-c1ccc2nc(CN3CCOCC3)ccc2c1	–
8.82	O=c1c2sc(-c3ccc(Cl)cc3)cc2ncn1-c1ccc2nc(CN3CCC(CCN4CCCC4)CC3)ccc2c1	–
8.70	O=c1c2sc(-c3ccc(Cl)cc3)cc2ncn1-c1ccc2nc(Cn3ccnc3)ccc2c1	–
8.64	O=c1c2sc(-c3ccc(Cl)cc3)cc2ncn1-c1ccc2c(c1)NCC(CN1CCCC1)O2 (configuration not stated)	–
8.89	O=c1c2sc(-c3ccc(Cl)cc3)cc2ncn1-c1ccc2nc(CN3CCC(c4ccccc4)CC3)ccc2c1	bioavailability [4]: 19%; half-life [11]: 8 h; clearance [12]: 11 mL/min/kg; Vd [14]: 4.3 L/kg
